Columns and labels:
[1] = molecular target: T1, recombinant human SYK360-635 (Homo sapiens, UniProt P43405); experiment: SYK kinase assay, 33P ATP filtration (ENZYME_FILTRATION_IC50); format: biochemical; settings: SYK aa 360-635 0.5 nM, ATP 20 μM, peptide 5 μM, 30° C. 15 min
T1 construct: truncated construct of Spleen Tyrosine Kinase aa 360-635; made in house
Experimental: Determination of IC50 of Spleen Tyrosine Kinase (SYK) Inhibition:
SYK kinase assay is a standard kinase assay adapted to a 96 well plate format. This assay is performed in 96-well format for IC50 determination with […] which represented 10 half log dilutions and a 40 μL reaction volume. The assay measures the incorporation of radiolabeled ^33P ATP into an N-terminally biotinylated peptide substrate, derived from naturally occurring phosphoacceptor consensus sequence (Biotin-11aa DY*E). Phosphorylated products were detected upon termination of reactions with EDTA and the addition of Streptavidin coated beads. Representative results are in Table II above.
Assay plates: 96-well MultiScreen 0.65 um filter plates (Millipore Cat. No.: MADVNOB10) Streptavidin coated beads: Streptavidin Sepharose™, suspension 5.0 mL, in 50 mM EDTA/PBS diluted (1:100), (Amersham, Cat. No.: 17-5113-01)
Compounds: 10 mM in 100% dimethylsulfoxide (DMSO), final conc.: compound 0.003-100 uM in 10% DMSO
Enzyme: SYK RPA purified, truncated construct of Spleen Tyrosine Kinase aa 360-635, stock solution 1 mg/mL, MW: 31.2 KDa, final conc.:0.0005 μM.
Peptide 1: biotinylated peptide is derived from a naturally occurring phosphor-acceptor consensus sequence (Biotin-EPEGDYEEVLE), special order from QCB, stock solution 20 mM, final conc.: 5.0 μM.
ATP: Adenosine-5′-triphosphate 20 mM, (ROCHE Cat. No.: 93202720), final concentration: 20 μM
Buffer: HEPES: 2-Hydroxyethyl piperazine-2-ethanesulfonic acid (Sigma, Cat. No.: H-3375) final concentration: 50 mM HEPES pH7.5
BSA: Bovine Serum Albumin Fraction V, fatty acid free (Roche Diagnostics GmbH, Cat. No. 9100221) diluted to a final concentration of 0.1%
EDTA: EDTA stock solution 500 mM, (GIBCO, Cat. No.: 15575-038) final concentration: 0.1 mM
DTT: 1,4-Dithiothreitol (Roche Diagnostics GmbH, Cat. No.: 197777), final conc.: 1 mM MgCl2×6H2O: MERCK, Cat. No.: 105833.1000, final concentration: 10 mM
Assay Dilution Buffer (ADB): 50 mM HEPES, 0.1 mM EGTA, 0.1 mM Na Vanadate, 0.1 mM β-glycerophosphate, 10 mM MgCl2, 1 mM DTT, 0.1% BSA, pH 7.5
Bead wash buffer: 10 g/L PBS (Phosphate buffered saline) with 2M NaCl+1% phosphoric acid.
In 40 μL volume, 26 μL of ADB diluted, purified recombinant human SYK360-635 [0.5 nM] was mixed with 4 μL of 10× concentrations of the test compounds, [usually 100 μM-0.003 μM] in [10%] DMSO and the mixture was incubated for 10 min at RT.
The kinase reaction was initiated by the addition of 10 μL 4× substrate cocktail containing the DYE peptide substrate [0 or 5 μM], ATP [20 μM] and ^33PγATP [2 μCi/rxn]. After incubation at 30° C. for 15 min, the reaction was terminated by the transfer of 25 μL pf the reaction sample to a 96 well 0.65 μm Millipore MADVNOB membrane/plate containing 200 μL 5 mM EDTA and 20% Streptavidine coated beads in PBS.
The unbound radionucleotides were washed under vacuum with 3×250 μL 2M NaCl; 2×250 μL 2M NaCl+1% phosphoric acid; 1×250 μL H2O. After the last wash membrane/plates were transferred to an adaptor plate, heat dried for 15 min at 60° C., and 50 μL scintillation cocktail was added to each well and 4 h later the amount of radioactivity was counted in a top counter.
The percent inhibition was calculated based on the uninhibited enzyme rate: % Inhibition=100/(1+(IC50/Inhibitor conc)^n)
The IC50 was calculated using a non-linear curve fit with XLfit software (ID Business Solution Ltd., Guilford, Surrey, UK).

[2] = system: RAMOS; experiment: RAMOS_V2_IC50; format: cell-based; settings: Homo sapiens
[3] = system: human whole blood; experiment: IC50: human whole blood; format: cell-based

Compound	IC50 [1] [µM]	IC50 [2] [µM]	IC50 [3] [µM]
c1ccc(-c2ncc(-c3cc[nH]n3)s2)cc1 [Compound I-1, 2-Phenyl-5-(1H-pyrazol-3-yl)-thiazole]	35.2		
CCOC(=O)c1c[nH]nc1-c1nc2ccccn2n1 [Compound I-2, 3-[1,2,4]Triazolo[1,5-a]pyridin-2-yl-1H-pyrazole-4-carboxylic acid ethyl ester]	0.113	> 34.1	
CC(C)C(=O)Nc1c[nH]nc1-c1nc2ccccc2s1 [Compound I-3, N-(3-Benzothiazol-2-yl-1H-pyrazol-4-yl)-isobutyramide]	2.08	5.41	
CC(C)(C)C(=O)Nc1c[nH]nc1-c1nc2ccccc2s1 [Compound I-4, N-(3-Benzothiazol-2-yl-1H-pyrazol-4-yl)-2,2-dimethyl-propionamide]	0.621	3.83	
O=C(Nc1c[nH]nc1-c1nc2ccccc2s1)C1CCCC1 [Compound I-5, Cyclopenanecarboxylic acid (3-benzothiazol-2-yl-1H-pyrazol-4-yl)-amide]	1.28	4.65	
O=C(Nc1c[nH]nc1-c1nc2ccccc2s1)C1CC1 [Compound I-6, Cyclopropanecarboxylic acid (3-benzothiazol-2-yl-1H-pyrazol-4-yl)-amide]	2.76	12	
CC(C)(CO)NC(=O)c1c[nH]nc1-c1nc2ccccc2s1 [Compound I-7, 3-(benzo[d]thiazol-2-yl)-N-(1-hydroxy-2-methylpropan-2-yl)-1H-pyrazole-4-carboxamide]	0.562	0.552	20.4
Cc1ccc2sc(-c3n[nH]cc3C(=O)NC(C)(C)CO)cc2c1 [Compound I-9, N-(1-hydroxy-2-methylpropan-2-yl)-3-(5-methylbenzo[b]thiophen-2-yl)-1H-pyrazole-4-carboxamide]	> 10		> 50
Cc1ccc2sc(-c3n[nH]cc3C(=O)NC(C)(C)C)cc2c1 [Compound I-10, N-tert-butyl-3-(5-methylbenzo[b]thiophen-2-yl)-1H-pyrazole-4-carboxamide]	> 10		> 50
COc1cccc(-c2n[nH]cc2C(=O)NC(C)(C)C)n1 [Compound I-11, N-tert-butyl-3-(6-methoxypyridin-2-yl)-1H-pyrazole-4-carboxamide]	7.95	> 34.1	
CCOC(=O)c1c[nH]nc1-c1nc2c(s1)CCCC2 [Compound I-14, ethyl 3-(4,5,6,7-tetrahydrobenzo[d]thiazol-2-yl)-1H-pyrazole-4-carboxylate]	> 10	> 34.1	
CCOC(=O)c1c[nH]nc1-c1nc2c(s1)CCC2 [Compound I-15, ethyl 3-(5,6-dihydro-4H-cyclopenta[d]thiazol-2-yl)-1H-pyrazole-4-carboxylate]	> 10	> 34.1	
CC(C)(C)NC(=O)c1c[nH]nc1-c1nc2c(s1)CCCC2 [Compound I-19, N-tert-butyl-3-(4,5,6,7-tetrahydrobenzo[d]thiazol-2-yl)-1H-pyrazole-4-carboxamide]		> 34.1	> 50
O=C(NC1CCCC1)c1c[nH]nc1-c1nc(-c2ccccc2)cs1 [Compound I-20, N-cyclopentyl-3-(4-phenylthiazol-2-yl)-1H-pyrazole-4-carboxamide]	0.215		> 50
O=C(NC1CCOCC1)c1c[nH]nc1-c1nc2c(s1)CCC2 [Compound I-22, 3-(5,6-dihydro-4H-cyclopenta[d]thiazol-2-yl)-N-(tetrahydro-2H-pyran-4-yl)-1H-pyrazole-4-carboxamide]	1.99	> 34.1	
O=C(NC1CCOCC1)c1c[nH]nc1-c1nc2c(s1)CCCC2 [Compound I-23, N-(tetrahydro-2H-pyran-4-yl)-3-(4,5,6,7-tetrahydrobenzo[d]thiazol-2-yl)-1H-pyrazole-4-carboxamide]	7.87	> 34.1	
CN1CCC(NC(=O)c2c[nH]nc2-c2nc3c(s2)CCCC3)CC1 [Compound I-24, N-(1-methylpiperidin-4-yl)-3-(4,5,6,7-tetrahydrobenzo[d]thiazol-2-yl)-1H-pyrazole-4-carboxamide]			> 50
O=C(Nc1c[nH]nc1-c1nc2ccccc2s1)C1CCOCC1 [Compound I-25, Tetrahydro-pyran-4-carboxylic acid (3-benzothiazol-2-yl-1H-pyrazol-4-yl)-amide]	4.61	5.21	
O=C(Nc1c[nH]nc1-c1nc2ccccc2s1)C1CCC1 [Compound I-26, Cyclobutanecarboxylic acid (3-benzothiazol-2-yl-1H-pyrazol-4-yl)-amide]	1.23		
CC(=O)OCC(C)(C)C(=O)Nc1c[nH]nc1-c1nc2ccccc2s1 [Compound I-27, Acetic acid 2-(3-benzothiazol-2-yl-1H-pyrazol-4-ylcarbamoyl)-2-methyl-propyl ester]	4.64	15.5	
CC(C)(CO)C(=O)Nc1c[nH]nc1-c1nc2ccccc2s1 [Compound I-28, N-(3-Benzothiazol-2-yl-1H-pyrazol-4-yl)-3-hydroxy-2,2-dimethyl-propionamide]	1.13	6.41	
CC(C)NC(=O)c1c[nH]nc1-c1nc2ccccc2[nH]1 [Compound I-36, 3-(1H-Benzoimidazol-2-yl)-1H-pyrazole-4-carboxylic acid isopropylamide]		0.292	2.54
CC(C)(C)NC(=O)c1c[nH]nc1-c1nc2ccccc2[nH]1 [Compound I-37, 3-(1H-Benzoimidazol-2-yl)-1H-pyrazole-4-carboxylic acid tert-butylamide]		0.14	2.86
O=C(NC1CCOCC1)c1c[nH]nc1-c1nc2ccccc2[nH]1 [Compound I-38, 3-(1H-Benzoimidazol-2-yl)-1H-pyrazole-4-carboxylic acid (tetrahydro-pyran-4-yl)-amide]		0.483	0.87
CC(C)(CO)NC(=O)c1c[nH]nc1-c1nc2ccccc2[nH]1 [Compound I-39, 3-(1H-Benzoimidazol-2-yl)-1H-pyrazole-4-carboxylic acid (2-hydroxy-1,1-dimethyl-ethyl)-amide]		0.986	2.87
Cc1cccc2[nH]c(-c3ncsc3Nc3cccnc3)nc12 [Compound I-40, 4-(4-methyl-1H-benzo[d]imidazol-2-yl)-N-(pyridin-3-yl)thiazol-5-amine]	0.487	0.764	
c1cncc(Nc2scnc2-c2nc3cnccc3[nH]2)c1 [Compound I-41]	5.44	> 31.2	
CCC(C)(C)Nc1scnc1-c1nc2cc(C)ccc2[nH]1 [Compound I-42, 4-(5-methyl-1H-benzo[d]imidazol-2-yl)-N-tert-pentylthiazol-5-amine]	1.62		> 50
Cc1ccc2[nH]c(-c3ncsc3NC3CCCC3)nc2c1 [Compound I-43, N-cyclopentyl-4-(5-methyl-1H-benzo[d]imidazol-2-yl)thiazol-5-amine]	0.699	> 34.1	
Cc1ccc2[nH]c(-c3ncsc3NCC(C)C)nc2c1 [Compound I-44, N-isobutyl-4-(5-methyl-1H-benzo[d]imidazol-2-yl)thiazol-5-amine]	0.621	7.98	

Source: US9988378B2, “1 H-pyrazole and 4,5-disubstituted thiazole inhibitors of SYK” (Hoffmann-La Roche Inc., priority 2012, dated 2018)
